Assay results taken from PubChem BioAssay (NCI).
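Protocol summary: plate cells (96-well), add compound at 5 concentrations, incubate 48 h, interpolate endpoints linearly. TGI marks complete inhibition of growth.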

Tests used:
Test in all cases: DTP human tumour cell line panel, 48 h
786-0 renal = tested on: 786-0 renal
A549 NSCLC = tested on: A549 NSCLC
ACHN renal = tested on: ACHN renal
BT-549 breast = tested on: BT-549 breast
CCRF-CEM leukemia = tested on: CCRF-CEM leukemia
COLO 205 colon = tested on: COLO 205 colon
DU-145 prostate = tested on: DU-145 prostate
EKVX NSCLC = tested on: EKVX NSCLC
HCC-2998 colon = tested on: HCC-2998 colon
HCT-116 colon = tested on: HCT-116 colon
HCT-15 colon = tested on: HCT-15 colon
HOP-62 NSCLC = tested on: HOP-62 NSCLC
HOP-92 NSCLC = tested on: HOP-92 NSCLC
HS 578T breast = tested on: HS 578T breast
HT29 colon = tested on: HT29 colon
IGROV1 ovarian = tested on: IGROV1 ovarian
KM12 colon = tested on: KM12 colon
LOX IMVI melanoma = tested on: LOX IMVI melanoma
M14 melanoma = tested on: M14 melanoma
MALME-3M melanoma = tested on: MALME-3M melanoma
MCF7 breast = tested on: MCF7 breast
MDA-MB-231 breast = tested on: MDA-MB-231 breast
MDA-MB-435 = tested on: MDA-MB-435
MDA-N = tested on: MDA-N
MOLT-4 leukemia = tested on: MOLT-4 leukemia
NCI-H226 lung = tested on: NCI-H226 lung
NCI-H23 lung = tested on: NCI-H23 lung
NCI-H460 lung = tested on: NCI-H460 lung
NCI-H522 lung = tested on: NCI-H522 lung
NCI/ADR-RES ovarian = tested on: NCI/ADR-RES ovarian
OVCAR-3 ovarian = tested on: OVCAR-3 ovarian
OVCAR-4 ovarian = tested on: OVCAR-4 ovarian
OVCAR-5 ovarian = tested on: OVCAR-5 ovarian
OVCAR-8 ovarian = tested on: OVCAR-8 ovarian
PC-3 prostate = tested on: PC-3 prostate
RPMI-8226 leukemia = tested on: RPMI-8226 leukemia
SF-268 CNS = tested on: SF-268 CNS
SF-295 CNS = tested on: SF-295 CNS
SK-MEL-2 melanoma = tested on: SK-MEL-2 melanoma
SK-MEL-28 melanoma = tested on: SK-MEL-28 melanoma
SK-MEL-5 melanoma = tested on: SK-MEL-5 melanoma
SK-OV-3 ovarian = tested on: SK-OV-3 ovarian
SN12C renal = tested on: SN12C renal
SNB-19 CNS = tested on: SNB-19 CNS
SNB-75 CNS = tested on: SNB-75 CNS
SR leukemia = tested on: SR leukemia
SW-620 colon = tested on: SW-620 colon
T-47D breast = tested on: T-47D breast
TK-10 renal = tested on: TK-10 renal
U251 CNS = tested on: U251 CNS
UACC-62 melanoma = tested on: UACC-62 melanoma
UO-31 renal = tested on: UO-31 renal
A498 renal = tested on: A498 renal
HL-60(TB) leukemia = tested on: HL-60(TB) leukemia
K-562 leukemia = tested on: K-562 leukemia
RXF 393 renal = tested on: RXF 393 renal
UACC-257 melanoma = tested on: UACC-257 melanoma

Measured: TGI

Cc1nn(-c2ccccc2)c2nc3ccc(Cl)cc3c(-c3ccccc3)c12
not listed: A498 renal | HL-60(TB) leukemia | K-562 leukemia | RXF 393 renal | UACC-257 melanoma
> 100 µM: all other assays above

NC(=O)CNC(=O)[C@@H]1C[C@@H](OCCC(=O)O)CN1C(=O)OCc1ccccc1
not listed: HCC-2998 colon | HOP-92 NSCLC | OVCAR-8 ovarian
> 100 µM: all other assays above
